Species: Rattus norvegicus
Assay: DrugMatrix - Regimen: Daily Repeat
Format: toxicity, organism-based, Sprague-Dawley
Set-up: regimen Daily Repeat, gender Male, age 6-8 weeks
Settings: in vivo, 0 mg/kg, dose level Control, vehicle 100 % SALINE; for ABSOLUTE BASOPHIL / ABSOLUTE EOSINOPHIL / ABSOLUTE LYMPHOCYTE / ABSOLUTE MONOCYTE / ABSOLUTE SEGMENTED NEUTROPHIL / BASOPHIL / EOSINOPHIL / ERYTHROCYTE COUNT / HEMATOCRIT / HEMOGLOBIN / LEUKOCYTE COUNT / LYMPHOCYTE / MEAN CORPUSCULAR HEMOGLOBIN / MEAN CORPUSCULAR HEMOGLOBIN CONCENTRATION / MEAN CORPUSCULAR VOLUME / MONOCYTE / NEUTROPHIL / NUCLEATED RED BLOOD CELLS / PLATELET COUNT: tissue Blood; for ALANINE AMINOTRANSFERASE / ALBUMIN / ALKALINE PHOSPHATASE / ASPARTATE AMINOTRANSFERASE / BLOOD UREA NITROGEN / CARBON DIOXIDE / CHLORIDE / CHOLESTEROL / CREATINE PHOSPHOKINASE / CREATININE / GLUCOSE / LIPASE / PHOSPHORUS / POTASSIUM / SODIUM / TOTAL BILIRUBIN / TOTAL PROTEIN / URIC ACID: tissue Plasma
[1] = po, 72 h, route oral GAVAGE, time 3 day
[2] = po, 120 h, route oral GAVAGE, time 5 day

COc1cccc2c1C(=O)c1c(O)c3c(c(O)c1C2=O)C[C@@](O)(C(C)=O)C[C@@H]3O[C@H]1C[C@H](N)[C@H](O)[C@H](C)O1 [DAUNORUBICIN]
ABSOLUTE BASOPHIL (iv, 72 h, time 3 day): 0 CELLS/uL | ABSOLUTE EOSINOPHIL (iv, 72 h, time 3 day): 21.67 CELLS/uL | ABSOLUTE LYMPHOCYTE (iv, 72 h, time 3 day): 10193.67 CELLS/uL | ABSOLUTE MONOCYTE (iv, 72 h, time 3 day): 165.83 CELLS/uL | ABSOLUTE SEGMENTED NEUTROPHIL (iv, 72 h, time 3 day): 702.17 CELLS/uL | BASOPHIL (iv, 72 h, time 3 day): 0% | EOSINOPHIL (iv, 72 h, time 3 day): 0.17% | ERYTHROCYTE COUNT (iv, 72 h, time 3 day): 5.39 x10E6/uL | HEMATOCRIT (iv, 72 h, time 3 day): 34.62% | HEMOGLOBIN (iv, 72 h, time 3 day): 13.8 G/DL | LEUKOCYTE COUNT (iv, 72 h, time 3 day): 11.08 x10E3/uL | LYMPHOCYTE (iv, 72 h, time 3 day): 91.83% | MEAN CORPUSCULAR HEMOGLOBIN (iv, 72 h, time 3 day): 25.68 pg | MEAN CORPUSCULAR HEMOGLOBIN CONCENTRATION (iv, 72 h, time 3 day): 39.9 G/DL | MEAN CORPUSCULAR VOLUME (iv, 72 h, time 3 day): 64.37 fL | MONOCYTE (iv, 72 h, time 3 day): 1.5% | NEUTROPHIL (iv, 72 h, time 3 day): 6.5% | NUCLEATED RED BLOOD CELLS (iv, 72 h, time 3 day): 0 /100WBC | PLATELET COUNT (iv, 72 h, time 3 day): 1202.83 x10E3/uL | ALANINE AMINOTRANSFERASE (iv, 72 h, time 3 day): 55.5 u/L | ALBUMIN (iv, 72 h, time 3 day): 4.22 G/DL | ALKALINE PHOSPHATASE (iv, 72 h, time 3 day): 406.83 u/L | ASPARTATE AMINOTRANSFERASE (iv, 72 h, time 3 day): 101.5 u/L | BLOOD UREA NITROGEN (iv, 72 h, time 3 day): 13.5 mg/dL | CARBON DIOXIDE (iv, 72 h, time 3 day): 30.33 mmol/L | CHLORIDE (iv, 72 h, time 3 day): 102.17 MEQ/L | CHOLESTEROL (iv, 72 h, time 3 day): 63.67 mg/dL | CREATINE PHOSPHOKINASE (iv, 72 h, time 3 day): 732.67 u/L | CREATININE (iv, 72 h, time 3 day): 0.2 mg/dL | GLUCOSE (iv, 72 h, time 3 day): 157 mg/dL | LIPASE (iv, 72 h, time 3 day): 10.83 u/L | PHOSPHORUS (iv, 72 h, time 3 day): 12.68 mg/dL | POTASSIUM (iv, 72 h, time 3 day): 5.67 MEQ/L | SODIUM (iv, 72 h, time 3 day): 144 MEQ/L | TOTAL BILIRUBIN (iv, 72 h, time 3 day): 0.15 mg/dL | TOTAL PROTEIN (iv, 72 h, time 3 day): 6.02 G/DL | URIC ACID (iv, 72 h, time 3 day): 1.55 mg/dL | ABSOLUTE BASOPHIL (iv, 120 h, time 5 day): 0 CELLS/uL | ABSOLUTE EOSINOPHIL (iv, 120 h, time 5 day): 17 CELLS/uL | ABSOLUTE LYMPHOCYTE (iv, 120 h, time 5 day): 11849.17 CELLS/uL | ABSOLUTE MONOCYTE (iv, 120 h, time 5 day): 69.83 CELLS/uL | ABSOLUTE SEGMENTED NEUTROPHIL (iv, 120 h, time 5 day): 730.67 CELLS/uL | BASOPHIL (iv, 120 h, time 5 day): 0% | EOSINOPHIL (iv, 120 h, time 5 day): 0.17% | ERYTHROCYTE COUNT (iv, 120 h, time 5 day): 5.93 x10E6/uL | HEMATOCRIT (iv, 120 h, time 5 day): 37.42% | HEMOGLOBIN (iv, 120 h, time 5 day): 14.4 G/DL | LEUKOCYTE COUNT (iv, 120 h, time 5 day): 12.67 x10E3/uL | LYMPHOCYTE (iv, 120 h, time 5 day): 93.17% | MEAN CORPUSCULAR HEMOGLOBIN (iv, 120 h, time 5 day): 24.32 pg | MEAN CORPUSCULAR HEMOGLOBIN CONCENTRATION (iv, 120 h, time 5 day): 38.5 G/DL | MEAN CORPUSCULAR VOLUME (iv, 120 h, time 5 day): 63.08 fL | MONOCYTE (iv, 120 h, time 5 day): 0.5% | NEUTROPHIL (iv, 120 h, time 5 day): 6.17% | NUCLEATED RED BLOOD CELLS (iv, 120 h, time 5 day): 0 /100WBC | PLATELET COUNT (iv, 120 h, time 5 day): 1170.5 x10E3/uL | ALANINE AMINOTRANSFERASE (iv, 120 h, time 5 day): 51 u/L | ALBUMIN (iv, 120 h, time 5 day): 4.12 G/DL | ALKALINE PHOSPHATASE (iv, 120 h, time 5 day): 392.67 u/L | ASPARTATE AMINOTRANSFERASE (iv, 120 h, time 5 day): 81.67 u/L | BLOOD UREA NITROGEN (iv, 120 h, time 5 day): 16.17 mg/dL | CARBON DIOXIDE (iv, 120 h, time 5 day): 30.67 mmol/L | CHLORIDE (iv, 120 h, time 5 day): 100.5 MEQ/L | CHOLESTEROL (iv, 120 h, time 5 day): 64.83 mg/dL | CREATINE PHOSPHOKINASE (iv, 120 h, time 5 day): 242.67 u/L | CREATININE (iv, 120 h, time 5 day): 0.2 mg/dL | GLUCOSE (iv, 120 h, time 5 day): 186.83 mg/dL | LIPASE (iv, 120 h, time 5 day): 10.83 u/L | PHOSPHORUS (iv, 120 h, time 5 day): 11.67 mg/dL | POTASSIUM (iv, 120 h, time 5 day): 5.51 MEQ/L | SODIUM (iv, 120 h, time 5 day): 142.55 MEQ/L | TOTAL BILIRUBIN (iv, 120 h, time 5 day): 0.22 mg/dL | TOTAL PROTEIN (iv, 120 h, time 5 day): 6.08 G/DL | URIC ACID (iv, 120 h, time 5 day): 1.85 mg/dL | ABSOLUTE BASOPHIL [1]: 140 cells/µL | ABSOLUTE EOSINOPHIL [1]: 43.3 cells/µL | ABSOLUTE LYMPHOCYTE [1]: 7570 cells/µL | ABSOLUTE MONOCYTE [1]: 160 cells/µL | BASOPHIL [1]: 1.47% | EOSINOPHIL [1]: 0.47% | ERYTHROCYTE COUNT [1]: 6.68 x10E6/uL | HEMATOCRIT [1]: 44.33% | HEMOGLOBIN [1]: 14.43 G/DL | LEUKOCYTE COUNT [1]: 9.33 x10E3/uL | LYMPHOCYTE [1]: 81.23% | MEAN CORPUSCULAR HEMOGLOBIN [1]: 21.67 pg | MEAN CORPUSCULAR HEMOGLOBIN CONCENTRATION [1]: 32.6 G/DL | MEAN CORPUSCULAR VOLUME [1]: 66.43 fL | MONOCYTE [1]: 1.73% | NEUTROPHIL [1]: 14.7% | PLATELET COUNT [1]: 1341.67 x10E3/uL | ALANINE AMINOTRANSFERASE [1]: 31 u/L | ALBUMIN [1]: 4.03 G/DL | ALKALINE PHOSPHATASE [1]: 447 u/L | ASPARTATE AMINOTRANSFERASE [1]: 61.33 u/L | BLOOD UREA NITROGEN [1]: 15.67 mg/dL | CARBON DIOXIDE [1]: 43 mmol/L | CHLORIDE [1]: 103.33 MEQ/L | CHOLESTEROL [1]: 83.67 mg/dL | CREATINE PHOSPHOKINASE [1]: 174.33 u/L | CREATININE [1]: 0.4 mg/dL | GLUCOSE [1]: 173 mg/dL | LIPASE [1]: 17.33 u/L | PHOSPHORUS [1]: 10.27 mg/dL | POTASSIUM [1]: 6.47 MEQ/L | SODIUM [1]: 143.67 MEQ/L | TOTAL BILIRUBIN [1]: 0.37 mg/dL | TOTAL PROTEIN [1]: 6.63 G/DL | URIC ACID [1]: 1.03 mg/dL | ABSOLUTE BASOPHIL [2]: 53.3 cells/µL | ABSOLUTE EOSINOPHIL [2]: 210 cells/µL | ABSOLUTE LYMPHOCYTE [2]: 8220 cells/µL | ABSOLUTE MONOCYTE [2]: 200 cells/µL | BASOPHIL [2]: 0.53% | EOSINOPHIL [2]: 2.1% | ERYTHROCYTE COUNT [2]: 7 x10E6/uL | HEMATOCRIT [2]: 44% | HEMOGLOBIN [2]: 14.53 G/DL | LEUKOCYTE COUNT [2]: 10.44 x10E3/uL | LYMPHOCYTE [2]: 78.07% | MEAN CORPUSCULAR HEMOGLOBIN [2]: 20.77 pg | MEAN CORPUSCULAR HEMOGLOBIN CONCENTRATION [2]: 33 G/DL | MEAN CORPUSCULAR VOLUME [2]: 62.87 fL | MONOCYTE [2]: 1.87% | NEUTROPHIL [2]: 16.8% | PLATELET COUNT [2]: 1104.33 x10E3/uL | ALANINE AMINOTRANSFERASE [2]: 31.67 u/L | ALBUMIN [2]: 3.93 G/DL | ALKALINE PHOSPHATASE [2]: 394.67 u/L | ASPARTATE AMINOTRANSFERASE [2]: 65.67 u/L | BLOOD UREA NITROGEN [2]: 15.67 mg/dL | CARBON DIOXIDE [2]: 40.67 mmol/L | CHLORIDE [2]: 104.33 MEQ/L | CHOLESTEROL [2]: 66.33 mg/dL | CREATINE PHOSPHOKINASE [2]: 346.67 u/L | CREATININE [2]: 0.33 mg/dL | GLUCOSE [2]: 176.67 mg/dL | LIPASE [2]: 14.33 u/L | PHOSPHORUS [2]: 11.17 mg/dL | POTASSIUM [2]: 6.53 MEQ/L | SODIUM [2]: 146 MEQ/L

Source: ChEMBL document CHEMBL3885881, “DrugMatrix”
